Measured values published in patent publication US12540137B2, “N-1 branched alkyl ether substituted imidazo[4,5-c]quinoline compounds, compositions, and methods” (Solventum Intellectual Properties Company, priority 2018, dated 2026).

Biological target: T1, human TLR7 (Homo sapiens, UniProt Q9NYK1)
T1 construct: host or cells: HEK293 (HEK-BLUE-hTLR7)
T1 sequence (Q9NYK1 27-1049): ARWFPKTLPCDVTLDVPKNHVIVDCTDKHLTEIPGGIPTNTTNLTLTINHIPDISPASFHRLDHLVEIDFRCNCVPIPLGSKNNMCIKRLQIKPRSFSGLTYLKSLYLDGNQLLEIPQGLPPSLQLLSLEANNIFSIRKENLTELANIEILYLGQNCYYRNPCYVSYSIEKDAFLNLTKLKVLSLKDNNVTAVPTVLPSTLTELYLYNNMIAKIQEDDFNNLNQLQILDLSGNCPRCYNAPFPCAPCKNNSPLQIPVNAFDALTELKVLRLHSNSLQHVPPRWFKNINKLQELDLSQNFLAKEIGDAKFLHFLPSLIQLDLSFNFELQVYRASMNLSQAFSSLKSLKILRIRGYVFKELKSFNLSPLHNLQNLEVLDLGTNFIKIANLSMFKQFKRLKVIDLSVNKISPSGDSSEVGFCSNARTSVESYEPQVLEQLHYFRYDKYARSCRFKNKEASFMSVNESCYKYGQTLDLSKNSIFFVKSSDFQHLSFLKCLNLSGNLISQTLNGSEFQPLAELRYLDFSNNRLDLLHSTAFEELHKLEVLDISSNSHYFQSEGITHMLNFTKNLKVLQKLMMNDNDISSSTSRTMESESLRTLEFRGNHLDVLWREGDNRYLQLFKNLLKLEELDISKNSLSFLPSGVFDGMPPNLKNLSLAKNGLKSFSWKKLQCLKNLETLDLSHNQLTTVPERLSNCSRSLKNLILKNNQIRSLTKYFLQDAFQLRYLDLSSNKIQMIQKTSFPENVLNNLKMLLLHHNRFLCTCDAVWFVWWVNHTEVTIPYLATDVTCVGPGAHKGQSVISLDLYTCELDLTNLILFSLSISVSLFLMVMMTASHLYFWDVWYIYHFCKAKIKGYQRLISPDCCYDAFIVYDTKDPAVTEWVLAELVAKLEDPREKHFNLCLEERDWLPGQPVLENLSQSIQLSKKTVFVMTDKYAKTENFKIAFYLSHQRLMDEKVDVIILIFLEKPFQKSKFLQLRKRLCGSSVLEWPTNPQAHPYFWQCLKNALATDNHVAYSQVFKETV
Assay: TLR activation, HEK-BLUE-hTLR7 SEAP reporter cells
Type: cell-based
Settings: 16-20 hours, SEAP response at least 2× vehicle control, tested 0.01-30 micromolar
Experimental: HEK-BLUE-hTLR7 or hTLR8 reporter cells were obtained from InvivoGen, San Diego, CA. According to the manufacturer's description, these reporter cells were prepared by co-transfection of HEK293 cells with an inducible secreted embryonic alkaline phosphatase (SEAP) reporter gene and either the human TLR7 or TLR8 gene. The SEAP reporter gene was placed under the control of an IFN−β minimal promoter fused to five NF-κB and AP-1-binding sites. In the presence of a TLR ligand, activation of NF-κB and AP-1 occurs, resulting in a corresponding increase in SEAP levels.
In the assay, the HEK cells were grown and maintained using standard cell culture techniques in a growth medium that contained Dulbecco's Modified Eagle Medium (ThermoFisher Scientific Incorporated, Waltham, MA) supplemented with 1% penicillin/streptomycin and 10% heat-inactivated Gibco fetal bovine serum (ThermoFisher Scientific). Each compound was solubilized in DMSO to create a 3 mM stock solution. The stock solution was then further diluted with the growth medium to prepare serial dilutions. Each test compound was tested at a concentration of 30, 10, 3.3, 1.1, 0.37, 0.12, 0.04, and 0.01 micromolar using a 96-well format with 5×10^4 cells and 200 microliters of growth medium per well.
For each compound, hTLR7, hTLR8, and their respective null control HEK cells were screened. DMSO serially diluted into the growth medium served as the vehicle control. Cell culture supernatants containing the SEAP reporter were collected after an incubation period of 16-20 hours in a cell culture incubator (37° C. and 5% CO2), and either analyzed immediately or stored at −80° C. SEAP levels were measured using the colorimetric enzyme assay (QUANTI-BLUE (InvivoGen) according to manufacturer's instructions.
Specifically, the minimum effective concentration of each compound (micromolar) was determined as the lowest concentration of the compound that produced a SEAP expression response at least 2× greater than that observed with the vehicle control wells.

MEC to Produce TLR Activation TLR 7	Compound
3.3 µM	CCOC[C@@H](C(C)C)n1cnc2c(N)nc3ccccc3c21 [Example 2, 1-[(1R)-1-(ethoxymethyl)-2-methyl-propyl]imidazo[4,5-c]quinolin-4-amine]
10 µM	CCOC[C@@H](n1c(CC)nc2c(N)nc3ccccc3c21)C(C)(C)O [Example 8, (3R)-3-(4-amino-2-ethyl-imidazo[4,5-c]quinolin-1-yl)-4-ethoxy-2-methyl-butan-2-ol]
1.1 µM	CCOC[C@H](C(C)C)n1c(C)nc2c(N)nc3ccccc3c21 [Example 3, 1-[(1S)-1-(ethoxymethyl)-2-methyl-propyl]-2-methyl-imidazo[4,5-c]quinolin-4-amine]
0.37 µM	CCOC[C@@H](n1c(C)nc2c(N)nc3ccccc3c21)C(C)(C)O [Example 7, (3R)-3-(4-amino-2-methyl-imidazo[4,5-c]quinolin-1-yl)-4-ethoxy-2-methyl-butan-2-ol]
>30 µM	CCOC[C@@H](C(C)C)n1c(C)nc2c(N)nc3ccccc3c21 [Example 4, 1-[(1R)-1-(ethoxymethyl)-2-methyl-propyl]-2-methyl-imidazo[4,5-c]quinolin-4-amine]
0.04 µM	COC[C@@H](n1cnc2c(N)nc3ccccc3c21)C(C)(C)C [Example 11, 1-[(1S)-1-(methoxymethyl)-2,2-dimethyl-propyl]imidazo[4,5-c]quinolin-4-amine]
3.3 µM	CCO[C@@H](C)[C@@H](n1cnc2c(N)nc3ccccc3c21)C(C)(C)O [Example 13, (3R,4S)-3-(4-aminoimidazo[4,5-c]quinolin-1-yl)-4-ethoxy-2-methyl-pentan-2-ol]

The next lines start with the compound.

Compound	MEC to Produce TLR Activation TLR 7
CCOC[C@H](n1cnc2c(N)nc3ccccc3c21)C(C)(C)C [Example 10, 1-[(1R)-1-(ethoxymethyl)-2,2-dimethyl-propyl]imidazo[4,5-c]quinolin-4-amine]	30 µM
CCOC[C@H](C(C)C)n1cnc2c(N)nc3ccccc3c21 [Example 1, 1-[(1S)-1-(ethoxymethyl)-2-methyl-propyl]imidazo[4,5-c]quinolin-4-amine]	0.12 µM
CCOC[C@@H](n1cnc2c(N)nc3ccccc3c21)C(O)(CC)CC [Example 12, (2R)-2-(4-aminoimidazo[4,5-c]quinolin-1-yl)-1-ethoxy-3-ethyl-pentan-3-ol]	0.04 µM
CCOC[C@@H](n1cnc2c(N)nc3ccccc3c21)C(C)(C)O [Example 5, (3R)-3-(4-aminoimidazo[4,5-c]quinolin-1-yl)-4-ethoxy-2-methyl-butan-2-ol]	≤0.01 µM
CCOC[C@@H](n1cnc2c(N)nc3ccccc3c21)C(C)(C)C [Example 9, 1-[(1S)-1-(ethoxymethyl)-2,2-dimethyl-propyl]imidazo[4,5-c]quinolin-4-amine]	≤0.01 µM
CCOC[C@H](n1cnc2c(N)nc3ccccc3c21)C(C)(C)O [Example 6, (3S)-3-(4-aminoimidazo[4,5-c]quinolin-1-yl)-4-ethoxy-2-methyl-butan-2-ol]	>30 µM
